Experimental data from patent EP4772510A2, “BENZAZEPINONE COMPOUND AND USE THEREOF” (HANGZHOU BIO-SINCERITY PHARMA-TECHCO., LTD., priority 2023, dated 2025).

Columns and labels:
[1] = system: HT-29 cells; assay: Inhibition of TNF-α-induced necroptosis of HT-29 cells (SRB method); format: cell-based, human; details: 18 h
Summary of the method: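 HT-29 cells (3 × 10^4/well, 24 h) were treated 18 h with compound (8 three-fold dilutions, 1000.00-0.46 nM, duplicate) plus TNF-α 20 ng/mL, BV6 2 µM and Z-VAD-FMK 20 µM final, at 37 °C. Viability was read by SRB absorbance; EC50 values were fitted.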

[2] = in vivo; details: rat
Procedure: (§1) Example 59: Pharmacokinetic Experiment of Compounds in SD Rats
(§2) SD rats, male, 6-8 weeks old, purchased from Zhejiang Vital River Laboratory Animal Technology Co., Ltd., production license No.: SCXK (Zhejiang) 2019-0001. The animals were maintained in an SPF-grade animal room of Hangzhou Bio-Sincerity Pharma-Tech Co., Ltd., with the experimental animal use license No. of SYXK (Zhejiang) 2021-0014. The animals were used after being acclimatized for at least one week. All experiments were performed in strict compliance with the regulations on experimental animals.
(§3) Four hours after administration, food was provided.
(§4) After administration to SD rats, about 300 µL of blood was collected from the orbit of each animal and anticoagulated with EDTA-Na2. […] The collected blood was placed in an ice bath and centrifuged within 1 h to separate plasma (centrifugation conditions: 2000× g, 10 min, 4 °C). 50 µL of plasma sample was taken, subjected to protein precipitation, and then assayed by UHPLC-MS. The assay data were analyzed and processed using WinNonLin8.1 pharmacokinetic software to obtain pharmacokinetic parameters.

[3] = Pharmacokinetic experiment in SD rats; details: p.o, 5 mg/kg vs i.v, 0.5 mg/kg
Procedure: as §1, §2, §3, §4

[4] = Homo sapiens, HT-29, TNF-α 20 ng/mL + BV6 2 µM + Z-VAD-FMK 20 µM
[5] = male, SD, plasma, intravenous, 0.5 mg/kg
[6] = male, SD, plasma, oral, 5 mg/kg
[7] = TNF-α 20 ng/mL + BV6 2 µM + Z-VAD-FMK 20 µM

| Compound | AUC(0-t) [2, 5] | Cmax [2, 5] | clearance [2, 5] | half-life [2, 5] | AUC(0-t) [2, 6] | CL/F [2, 6] | Cmax [2, 6] | half-life [2, 6] | Fabs (%) [3] | AUC(0-t) ([2]; in vivo, iv, 0.5 mg/kg) | Cmax ([2]; in vivo, iv, 0.5 mg/kg) | clearance ([2]; in vivo, iv, 0.5 mg/kg) | half-life ([2]; in vivo, iv, 0.5 mg/kg) | AUC(0-t) ([2]; in vivo, po, 5 mg/kg) | CL/F ([2]; in vivo, po, 5 mg/kg) | Cmax ([2]; in vivo, po, 5 mg/kg) | half-life ([2]; in vivo, po, 5 mg/kg) | EC50 [1, 4] | EC50 [1, 7] |
| --- | --- | --- | --- | --- | --- | --- | --- | --- | --- | --- | --- | --- | --- | --- | --- | --- | --- | --- | --- |
| CN1C(=O)[C@@H](NC(=O)c2nnc(Cc3ccccc3)[nH]2)COc2ccccc21 [GSK2982772, (S)-5-benzyl-N-(5-methyl-4-oxo-2,3,4,5-tetrahydrobenzo[b][1,4]oxazepin-3-yl)-4H-1,2,4-triazole-3-carboxamide, reference compound] | 5560 ng·h/mL | 4320 ng/mL | 1.5 mL/min/kg | 197 min | 21700 ± 6530 ng·h/mL | 4.03 ± 1.05 mL/min/kg | 5820 ± 1210 ng/mL | 184 ± 24.6 min | 39.13 ± 11.8% |  |  |  |  |  |  |  |  | 5 to 10 nM |  |
| Cn1cc(C#Cc2cc3c4c(c2)CCN4C(=O)C(NC(=O)c2ncn(Cc4c(F)cccc4F)n2)CC3)cn1 (stereo not drawn) [III-1, 1-(2,6-difluorobenzyl)-N-(9-((1-methyl-1H-pyrazol-4-yl)ethynyl)-4-oxo-1,2,3,4,6,7-hexahydroazepino[3,2,1-hi]indol-3-yl)-1H-1,2,4-triazole-3-carboxamide] |  |  |  |  |  |  |  |  | 111.92 ± 11.87% | 1980 ± 204 ng·h/mL | 1430 ± 181 ng/mL | 5.54 ± 2.45 mL/min/kg | 143 ± 106 min | 22600 ± 2370 ng·h/mL | 3.7 ± 0.39 mL/min/kg | 4100 ± 520 ng/mL | 176 ± 9.6 min | < 5 nM |  |
| O=C(NC1CCc2cc(C#Cc3cnn(C(F)F)c3)cc3c2N(CC3)C1=O)c1ncn(Cc2c(F)cccc2F)n1 (stereo not drawn) [III-17, 1-(2,6-difluorobenzyl)-N-(9-((1-(difluoromethyl)-1H-pyrazol-4-yl)ethynyl)-4-oxo-1,2,3,4,6,7-hexahydroazepino[3,2,1-hi]indol-3-yl)-1H-1,2,4-triazole-3-carboxamide] |  |  |  |  |  |  |  |  |  |  |  |  |  |  |  |  |  |  | < 5 nM |
| O=C(NC1CCc2cc(C#Cc3cnn(C(F)F)c3)cc3c2N(CC3)C1=O)c1ncn(Cc2ccccc2F)n1 (stereo not drawn) [III-21, N-(9-((1-(difluoromethyl)-1H-pyrazol-4-yl)ethynyl)-4-oxo-1,2,3,4,6,7-hexahydroazepino[3,2,1-hi]indol-3-yl)-1-(2-fluorobenzyl)-1H-1,2,4-triazole-3-carboxamide] |  |  |  |  |  |  |  |  | 97.15 ± 40.17% | 651 ± 66.4 ng·h/mL | 619 ± 65.8 ng/mL | 12.8 ± 1.27 mL/min/kg | 71.4 ± 6 min | 6250 ± 2790 ng·h/mL | 14.9 ± 6.92 mL/min/kg | 1280 ± 509 ng/mL | 160 ± 41.4 min | < 5 nM |  |
| C#Cc1cc2c3c(c1)CCN3C(=O)C(NC(=O)c1ncn(Cc3c(F)cccc3F)n1)CC2 (stereo not drawn) [III-26, 1-(2,6-difluorobenzyl)-N-(9-ethynyl-4-oxo-1,2,3,4,6,7-hexahydroazepino[3,2,1-hi]indol-3-yl)-1H-1,2,4-triazole-3-carboxamide] |  |  |  |  |  |  |  |  | 51.2 ± 3.29% | 550 ± 34.5 ng·h/mL | 896 ± 158 ng/mL | 15.2 ± 0.98 mL/min/kg | 26.4 ± 1.8 min | 2810 ± 177 ng·h/mL | 29.6 ± 1.95 mL/min/kg | 1370 ± 389 ng/mL | 239 ± 149 min | < 5 nM |  |
| N-(9-((1-(difluoromethyl)-1H-pyrazol-4-yl)ethynyl)-4-oxo-1,2,3,4,6,7-hexahydroazepino[3,2,1-hi]indol-3-yl)-1-(4-methylbenzyl)-1H-1,2,4-triazole-3-carboxamide [III-25] |  |  |  |  |  |  |  |  |  |  |  |  |  |  |  |  |  |  | 5 to 10 nM |

Second part, led by results:

| AUC(0-t) [2, 5] | Cmax [2, 5] | clearance [2, 5] | half-life [2, 5] | AUC(0-t) [2, 6] | CL/F [2, 6] | Cmax [2, 6] | half-life [2, 6] | Fabs (%) [3] | AUC(0-t) ([2]; in vivo, iv, 0.5 mg/kg) | Cmax ([2]; in vivo, iv, 0.5 mg/kg) | clearance ([2]; in vivo, iv, 0.5 mg/kg) | half-life ([2]; in vivo, iv, 0.5 mg/kg) | AUC(0-t) ([2]; in vivo, po, 5 mg/kg) | CL/F ([2]; in vivo, po, 5 mg/kg) | Cmax ([2]; in vivo, po, 5 mg/kg) | half-life ([2]; in vivo, po, 5 mg/kg) | Compound | EC50 [1, 4] | EC50 [1, 7] |
| --- | --- | --- | --- | --- | --- | --- | --- | --- | --- | --- | --- | --- | --- | --- | --- | --- | --- | --- | --- |
|  |  |  |  |  |  |  |  | 51.37 ± 3.03% | 5340 ± 1330 ng·h/mL | 1940 ± 319 ng/mL | 1.6 ± 0.39 mL/min/kg | 142 ± 38.4 min | 27700 ± 1560 ng·h/mL | 3.01 ± 0.18 mL/min/kg | 4660 ± 132 ng/mL | 154 ± 41.4 min | Cn1cc(C#Cc2cc3c4c(c2)CCN4C(=O)C(NC(=O)c2ncn(Cc4cc(F)ccc4F)n2)CC3)cn1 (stereo not drawn) [III-10, 1-(2,5-difluorobenzyl)-N-(9-((1-methyl-1H-pyrazol-4-yl)ethynyl)-4-oxo-1,2,3,4,6,7-hexahydroazepino[3,2,1-hi]indol-3-yl)-1H-1,2,4-triazole-3-carboxamide] | < 5 nM |  |
|  |  |  |  |  |  |  |  | 64.54 ± 10.10% | 8830 ± 1290 ng·h/mL | 1300 ± 23.2 ng/mL | 0.91 ± 0.18 mL/min/kg | 347 ± 134 min | 60400 ± 9300 ng·h/mL | 1.39 ± 0.2 mL/min/kg | 7330 ± 781 ng/mL | 191 ± 31.2 min | Cn1cc(C#Cc2cc3c4c(c2)CCN4C(=O)C(NC(=O)c2ncn(Cc4ccc(F)c(F)c4)n2)CC3)cn1 (stereo not drawn) [III-12, 1-(3,4-difluorobenzyl)-N-(9-((1-methyl-1H-pyrazol-4-yl)ethynyl)-4-oxo-1,2,3,4,6,7-hexahydroazepino[3,2,1-hi]indol-3-yl)-1H-1,2,4-triazole-3-carboxamide] | 10 to 100 nM |  |
|  |  |  |  |  |  |  |  | 121.33 ± 40.32% | 703 ± 191 ng·h/mL | 662 ± 110 ng/mL | 12.2 ± 3.04 mL/min/kg | 82.2 ± 12 min | 8130 ± 3570 ng·h/mL | 10.3 ± 3.12 mL/min/kg | 1480 ± 545 ng/mL | 178 ± 41.4 min | O=C(NC1CCc2cc(C#Cc3cnn(C(F)F)c3)cc3c2N(CC3)C1=O)c1ncn(Cc2cc(F)ccc2F)n1 (stereo not drawn) [III-19, 1-(2,5-difluorobenzyl)-N-(9-((1-(difluoromethyl)-1H-pyrazol-4-yl)ethynyl)-4-oxo-1,2,3,4,6,7-hexahydroazepino[3,2,1-hi]indol-3-yl)-1H-1,2,4-triazole-3-carboxamide] | < 5 nM |  |
